According to patent publication US9902703B2, “Somatostatin modulators and uses thereof” (Crinetics Pharmaceuticals, Inc., priority 2015, dated 2018):

These compounds were tested against T1, human somatostatin receptor subtype 2 (Homo sapiens, UniProt P30874) (assay: cAMP assay (functional assay for SSTR2 agonists)). Settings: CHO cells expressing human SSTR2; intracellular cAMP with forskolin, HTRF; read-out: SSTR2a EC50.
T1 construct: expressed in transfected cells; host or cells: CHO (Chinese hamster ovary) cells, G-418 selected
T1 sequence (P30874 whole entry): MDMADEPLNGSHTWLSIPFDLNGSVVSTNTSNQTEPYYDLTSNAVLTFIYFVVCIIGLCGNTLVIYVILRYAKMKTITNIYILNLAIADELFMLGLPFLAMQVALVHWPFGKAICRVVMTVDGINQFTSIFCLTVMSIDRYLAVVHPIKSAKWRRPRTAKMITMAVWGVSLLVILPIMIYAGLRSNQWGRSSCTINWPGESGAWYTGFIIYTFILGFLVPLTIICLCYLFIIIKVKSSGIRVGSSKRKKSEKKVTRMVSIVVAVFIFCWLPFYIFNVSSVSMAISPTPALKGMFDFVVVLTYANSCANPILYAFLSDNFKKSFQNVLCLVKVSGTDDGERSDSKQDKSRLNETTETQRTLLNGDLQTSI
Format: cell-based
Outline: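 CHO cells expressing human SSTR2 were treated with compound for 15 min at 37° C in buffer with forskolin, 0.2 mM IBMX and 0.1% BSA. Intracellular cAMP was read by HTRF after 1-24 h lysis at room temperature, and EC50 came from cAMP versus compound concentration curves.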
Compound `Cc1cc(Cl)cc(N2C=Nc3cc(C)c(-c4cc(Cl)cc(C5(C#N)CC5)c4)cc3C2C(=O)N(C)C[C@@H]2CCCN2)c1` (stereo partly drawn) [Compound 2-17, 6-[3-chloro-5-(1-cyanocyclopropyl)phenyl]-3-(3-chloro-5-methylphenyl)-N,7-dimethyl-N-[(2S)-pyrrolidin-2-ylmethyl]-3,4-dihydroquinazoline-4-carboxamide] has an EC50 of less than 100 nM. `Cc1cc(Cl)cc(N2C=Nc3cc(C)c(-c4cncc(C#N)c4)cc3C2C(=O)N(C)C[C@@H]2CCCN2)c1` (stereo partly drawn) [Compound 2-18, 3-(3-chloro-5-methylphenyl)-6-(5-cyanopyridin-3-yl)-N,7-dimethyl-N-[(2S)-pyrrolidin-2-ylmethyl]-3,4-dihydroquinazoline-4-carboxamide] showed an EC50 of less than 100 nM. Work on `Cc1cc(Cl)cc(N2C=Nc3cc(C)c(-c4cc(C(F)(F)F)cnc4Cl)cc3C2C(=O)N(C)C[C@@H]2CCCN2)c1` (stereo partly drawn) [Compound 2-19, 6-[2-chloro-5-(trifluoromethyl)pyridin-3-yl]-3-(3-chloro-5-methylphenyl)-N,7-dimethyl-N-[(2S)-pyrrolidin-2-ylmethyl]-3,4-dihydroquinazoline-4-carboxamide] yielded an EC50 of less than 100 nM. With `Cc1cc(Cl)cc(N2C=Nc3cc(C)c(-c4cc(F)cc(C(F)(F)F)c4)cc3C2C(=O)N(C)C[C@@H]2CCCN2)c1` (stereo partly drawn) [Compound 2-20, 3-(3-chloro-5-methylphenyl)-6-[3-fluoro-5-(trifluoromethyl)phenyl]-N,7-dimethyl-N-[(2S)-pyrrolidin-2-ylmethyl]-3,4-dihydroquinazoline-4-carboxamide] the EC50 was less than 100 nM. `Cc1cc(Cl)cc(N2C=Nc3cc(C)c(-c4cc(O)cc(F)c4)cc3C2C(=O)N(C)C[C@@H]2CCCN2)c1` (stereo partly drawn) [Compound 2-21, 3-(3-chloro-5-methylphenyl)-6-(3-fluoro-5-hydroxyphenyl)-N,7-dimethyl-N-[(2S)-pyrrolidin-2-ylmethyl]-3,4-dihydroquinazoline-4-carboxamide] gave an EC50 of less than 100 nM. Compound `COc1cc(C#N)cc(-c2cc3c(cc2C)N=CN(c2cc(C)cc(Cl)c2)C3C(=O)N(C)C[C@@H]2CCCN2)c1` (stereo partly drawn) [Compound 2-24, 3-(3-chloro-5-methylphenyl)-6-(3-cyano-5-methoxyphenyl)-N,7-dimethyl-N-[(2S)-pyrrolidin-2-ylmethyl]-3,4-dihydroquinazoline-4-carboxamide] has an EC50 of less than 100 nM. `Cc1cc(Cl)cc(N2C=Nc3cc(C)c(-c4cc(C)oc4C)cc3C2C(=O)N(C)C[C@@H]2CCCN2)c1` (stereo partly drawn) [Compound 2-25, 3-(3-chloro-5-methylphenyl)-6-(2,5-dimethylfuran-3-yl)-N,7-dimethyl-N-[(2S)-pyrrolidin-2-ylmethyl]-3,4-dihydroquinazoline-4-carboxamide] was tested, and the EC50 was 100 to 1000 nM. In the case of `Cc1cc(Cl)cc(N2C=Nc3cc(C)c(-c4ccncc4Cl)cc3C2C(=O)N(C)C[C@@H]2CCCN2)c1` (stereo partly drawn) [Compound 2-26, 3-(3-chloro-5-methylphenyl)-6-(3-chloropyridin-4-yl)-N,7-dimethyl-N-[(2S)-pyrrolidin-2-ylmethyl]-3,4-dihydroquinazoline-4-carboxamide], the EC50 is reported as 100 to 1000 nM. For `Cc1cc(Cl)cc(N2C=Nc3cc(C)c(-c4ccnc(C#N)c4)cc3C2C(=O)N(C)C[C@@H]2CCCN2)c1` (stereo partly drawn) [Compound 2-27, 3-(3-chloro-5-methylphenyl)-6-(2-cyanopyridin-4-yl)-N,7-dimethyl-N-[(2S)-pyrrolidin-2-ylmethyl]-3,4-dihydroquinazoline-4-carboxamide], the EC50 was 100 to 1000 nM. `COc1c(C#N)cccc1-c1cc2c(cc1C)N=CN(c1cc(C)cc(Cl)c1)C2C(=O)N(C)C[C@@H]1CCCN1` (stereo partly drawn) [Compound 2-28, 3-(3-chloro-5-methylphenyl)-6-(3-cyano-2-methoxyphenyl)-N,7-dimethyl-N-[(2S)-pyrrolidin-2-ylmethyl]-3,4-dihydroquinazoline-4-carboxamide] showed an EC50 of less than 100 nM. Work on `Cc1cc(Cl)cc(N2C=Nc3cc(C)c(-c4cc(C(N)=O)ccc4Cl)cc3C2C(=O)N(C)C[C@@H]2CCCN2)c1` (stereo partly drawn) [Compound 2-29, 6-(5-carbamoyl-2-chlorophenyl)-3-(3-chloro-5-methylphenyl)-N,7-dimethyl-N-[(2S)-pyrrolidin-2-ylmethyl]-3,4-dihydroquinazoline-4-carboxamide] yielded an EC50 of less than 100 nM. `COc1cccc(-c2cc3c(cc2C)N=CN(c2cc(C)cc(Cl)c2)C3C(=O)N(C)C[C@@H]2CCCN2)c1C#N` (stereo partly drawn) [Compound 2-30, 3-(3-chloro-5-methylphenyl)-6-(2-cyano-3-methoxyphenyl)-N,7-dimethyl-N-[(2S)-pyrrolidin-2-ylmethyl]-3,4-dihydroquinazoline-4-carboxamide] was tested, and the EC50 was less than 100 nM. In the case of `Cc1cc(Cl)cc(N2C=Nc3cc(C)c(-c4cccc(O)c4C#N)cc3C2C(=O)N(C)C[C@@H]2CCCN2)c1` (stereo partly drawn) [Compound 2-31, 3-(3-chloro-5-methylphenyl)-6-(2-cyano-3-hydroxyphenyl)-N,7-dimethyl-N-[(2S)-pyrrolidin-2-ylmethyl]-3,4-dihydroquinazoline-4-carboxamide], the EC50 is reported as 100 to 1000 nM. With `Cc1cc(Cl)cc(N2C=Nc3cc(C)c(-c4ccc(O)c(F)c4)cc3C2C(=O)N(C)C[C@@H]2CCCN2)c1` (stereo partly drawn) [Compound 2-32, 3-(3-chloro-5-methylphenyl)-6-(3-fluoro-4-hydroxyphenyl)-N,7-dimethyl-N-[(2S)-pyrrolidin-2-ylmethyl]-3,4-dihydroquinazoline-4-carboxamide] the EC50 was less than 100 nM. In the case of `Cc1cc(Cl)cc(N2C=Nc3cc(C)c(-c4ccc5[nH]c(=O)[nH]c5c4)cc3C2C(=O)N(C)C[C@@H]2CCCN2)c1` (stereo partly drawn) [Compound 2-34, 3-(3-chloro-5-methylphenyl)-N,7-dimethyl-6-(2-oxo-2,3-dihydro-1H-1,3-benzodiazol-5-yl)-N-[(2S)-pyrrolidin-2-ylmethyl]-3,4-dihydroquinazoline-4-carboxamide], the EC50 is reported as less than 100 nM. `COc1cc(F)cc(-c2cc3c(cc2C)N=CN(c2cc(C)cc(Cl)c2)C3C(=O)N(C)C[C@@H]2CCCN2)c1` (stereo partly drawn) [Compound 2-35, 3-(3-chloro-5-methylphenyl)-6-(3-fluoro-5-methoxyphenyl)-N,7-dimethyl-N-[(2S)-pyrrolidin-2-ylmethyl]-3,4-dihydroquinazoline-4-carboxamide] was tested, and the EC50 was less than 100 nM.
